Source: US11439615B2, “Lipoxin and lipoxin analogue mediated neuroprotection and treatments” (University Health Network, priority 2017, dated 2022)

Experiments:
primary RGCs = experiment: Primary RGCs under paraquat oxidative stress, cell and neurite survival; assay type: cell-based, rat; settings: 1 μM, 24 hours of 30 μM PQ
Experimental: FIG. 5D is a graph showing Mitotracker red signal which indicates protection from […] membrane potential with LXB4 treatment (n=3). FIG. 5E is a series of images showing primary RGCs labeled with β3-tubulin extend an extensive network of neurites that disintegrate dramatically after 24 hours of 30 μM PQ. […] (Scale bar indicates 20 μm, *p<0.05, **p<0.01, bars are S.E.M.).
For astrocytes: Primary mature retinal astrocytes (RA) were isolated and cultured as previously described (46). Briefly, eyes were dissected out of adult Wistar rats and placed in ice-cold MEM-H17 media. Isolated retinas were digested by shaking in MEM-H17 containing papain and DNAse, followed by trituration to disperse cell-aggregates. When cultures reached confluence, the cells were placed on a rotating shaker for 6-8 hours to remove microglia and then re-plated. A glial-specific expression profile was confirmed by probing the cultures with a panel of glia microglia and neuronal markers (44). For RGCs: RGCs were purified using magnetic MicroBeads (Miltenyi Biotec, Germany) according to the manufacturer's protocol. Briefly; retinal cell suspensions were prepared from 8-10 day old rats and incubated with CD90.1 microbeads, and then carefully washed with DPBS/BSA buffer. The suspension was centrifuged at 130×g and the supernatant aspirated. Cells were then incubated with biotinylated depletion antibodies against microglia and endothelial cells. The labeled cell suspension was then incubated with magnetic Anti-Biotin MACSiBead™ Particles, and placed in a weak magnetic field. The pre-enriched cell suspension was centrifuged, and resuspended in fresh DPBS/BSA buffer and applied to a MACs MS separation column in the presence of a strong magnetic field to select for CD90.1-bound RGCs. To increase RGC purity, the eluted fraction was enriched over a second column. Purified RGCs were eluted and plated on poly-D-lysine coated dishes. The cells were cultured in Neurobasal-A media (Gibco) supplemented with 2% calf serum, B27, L-glutamine, BDNF, CNTF, forskolin and pen/strep.

[1] = test system: dopaminergic SH-SY5Y cells; experiment: Mitochondrial oxidative stress in SH-SY5Y cells challenged with paraquat; assay type: cell-based; settings: paraquat (PQ) induced oxidative stress, vs vehicle
HT22 cells = experiment: Glutamate challenge of HT22 neuronal cells, viability; assay type: cell-based; settings: for efficacy of neuroprotection / EC50: HT22 cells exposed to glutamate stress, nonlinear regression; for EC50: Mus musculus, HT-22, n=3/point, read-out: EC50 of neuroprotection; for viability of glutamate challenged HT22 cells: increasing concentrations up to 500 nM, 5 mM glutamate
Experimental: An in vitro assay to recapitulate key aspects of the acute KA model was established. In this case, unconcentrated ACM was applied to the glutamate sensitive neuronal cell line HT22 (66, 67). Glutamate challenge of 5 mM was titrated to induce 60-80% cell death (ie: 20-40% survival). […] The media was concentrated for proteomic analyses.
LXA4 and LXB4 promote direct neuroprotective signaling. To the inventor's knowledge, a role for lipoxins as direct neuroprotective or neurotrophic factors has not been reported. Although their established anti-inflammatory actions extend to the CNS (29-32). However, it was hypothesized they may have indirect protective effects. In order to test whether the protective activity was direct or indirect, LXA4 or LXB4 was applied to neuronal cells in an established in vitro assay.
There is no established receptor for LXB4. However, LXB4 shares structural homology with LXA4 and the DHA-derived resolving D2 (RvD2), which mediate their actions via FPR2 or GPR18 (74), respectively. Therefore, it was assessed whether specific receptor antagonists for FPR2 or GPR18 could block LXB4 mediated protection.
As shown in FIG. 14 lipoxin neuroprotection is dose responsive. Dose responses were generated for LXA4 (open circles) and LXB4 (closed circles) in HT22 cells exposed to glutamate stress, followed by nonlinear regression analyses.

[2] = test system: retinal ganglion cell neurons (RGCs); experiment: Rat chronic IOP (circumlimbal suture) glaucoma model; assay type: in vivo
Text: A method for reliably inducing sustained IOPs in the rodent eye was recently developed by Liu et al (55, 56). In this minimally invasive approach, a circumlimbal suture is placed to induce chronic ocular hypertension. An advantage of this strategy is that specific IOPs can be targeted and monitored by rebound tonometry, improving the consistency of results. In addition, following suturing elevated IOPs can be maintained for as long as 15 weeks (55). The model reproduces key features of glaucoma, such as; progressive and preferential decline in RGC function starting by week 8, gradual loss of the retinal nerve fiber layer (RNFL) by week 12, and RGC death by week 15, with minimal overt inflammation (55, 57). In the experiments, circumlimbal sutures were placed in the randomized right or left eyes of anesthetized rats using a sterile 8-0 nylon suture. IOP was measured twice a week, and only animals showing sustained elevated IOP over 21 mmHg for the duration of the experiment were included in the analyses. The delivery and dosage of LXB4 was based on previous publications (58-60). Briefly, LXB4 or vehicle were administered starting from week 8 on alternate days. Due to the unstable nature of lipoxins, a hybrid approach was taken to ensure consistent delivery, including both IP delivery (1 μg) and topically to each eye (100 ng). ERG was measured monthly to assess RGC functional changes using the positive scotopic threshold response (pSTR), which has been used to measure the impact of elevated chronic IOP in rats (55, 61). In addition, RNFL and total retinal thickness were quantified once a month using optical coherence tomography (OCT). After 15 weeks, animals were euthanized and RGC numbers were counted on middle and peripheral quadrants of retinal flatmounts following immunofluorescent staining for the RGC marker BRN3a as above.
Therapeutic LXB4 treatment rescues RGC function in a chronic IOP dependent glaucoma model. To assess whether LXB4 action extends beyond acute stress models, it was investigated if it provides RGC protection in a chronic model more relevant to human neurodegenerative disease. For this purpose a recently described rat perilimbal suture model of glaucoma was used, in which moderately elevated intraocular pressure (IOP) can be consistently maintained over 15 weeks (55, 57). Elevated IOP is the primary clinical glaucoma risk factor, and this model results in similar compromised RGC function, reduced nerve fiber layer (NFL) thickness, and death of RGCs by week 15 (55). […] Therefore, this time point was chosen to initiate an experiment in which therapeutic treatment with LXB4 or vehicle was administered to sutured rats starting at week 8, with longitudinal and pathological assessment of RGC function and survival (FIG. 6A).
LXB4 or vehicle treatment of sutured rats was initiated after 8 weeks of elevated IOP, and was delivered on alternate days until week 15. A control group was treated with vehicle only. Additionally, for each rat increased IOP was induced in the unilaterally, with the contralateral eye serving as control. IOP was monitored twice weekly throughout the experiment. As functional and structural endpoints, electroretinograms (ERG) and optical coherence tomography (OCT) were measured at week 0 (before placing the suture), and on weeks 4, 8, and 12, and 15 of elevated IOP.
In vehicle eyes there were 35% and 30% fewer BRN3a positive RGCs in sutured eyes compared to contralateral controls in the […], respectively (FIG. 7A-FIG. 7B).

SMILES | RGC survival following oxidative stress (primary RGCs) | mitochondrial oxidative stress / mitochondria stabilisation [1] | efficacy of neuroprotection (HT22 cells) | EC50 (HT22 cells) | viability of glutamate challenged HT22 cells (HT22 cells) | RGC function, positive scotopic threshold response (pSTR, ERG) ([2]; IP 1 μg and topical 100 ng on alternate days from week 8 to 15, by week 12, vs vehicle) | IOP levels compared to vehicle treated group ([2]; measured twice weekly throughout) | a-wave (photoreceptor) and b-wave (bipolar cell) ERG signals ([2]; treatment week 8 to 15) | total retinal thickness (OCT) ([2]; treatment week 8 to 15) | RNFL thickness loss (OCT) ([2]; treatment week 8 to 15, by week 15, vs vehicle) | BRN3a positive RGCs on retinal flatmounts, inner and outer retina ([2]; week 15, vs vehicle) | RGC neurite degeneration following PQ challenge (primary RGCs)
CCCCC[C@H](O)/C=C/C=C\C=C\C=C\[C@@H](O)[C@@H](O)CCCC(=O)O [LXA4, 5S,6R,15S-trihydroxy-7E,9E,11Z,13E-eicosatetraenoic acid] | significant rescue | stabilize mitochondria | 0.89 | 631 nM | significantly increased viability | – | – | – | – | – | – | –
CCCCC[C@H](O)[C@H](O)/C=C/C=C/C=C\C=C\[C@@H](O)CCCC(=O)O [LXB4, 5S,14R,15S-trihydroxy-6E,8Z,10E,12E-eicosatetraenoic acid] | significant rescue | stabilize mitochondria | 0.81 | 39.2 nM | significantly increased viability | significant recovery | did not differ | no LXB4 effects | not affected | partially rescued | significant rescue of RGCs | significantly rescued
